In patent US11147796B2, “Agent for preventing or ameliorating hearing impairment” (Tohoku University, priority 2017, dated 2021):

Test system: “m.1555A>G mutant” cells
Test: Cell survival level (MTT assay, Cell Counting Kit-8) of BSO-treated cells
Assay type: cell-based, human
Details: BSO 100 μM, 48 hours
Description: In the following Examples 2, 3, and 5, “m.1555A>G mutant” cells were obtained by skin reproductive to a patient having “m.1555A>G mutation” to obtain dermal fibroblasts, then 10% Primary culture was carried out in DMEM (low glucose) culture solution (manufactured by Nacalai Tesque, Inc) containing FBS (Fetal bovine serum) under the condition of 5% CO2/20% O2, at 37° C. and isolated. In the following Examples 4 and 5, the inner ear culture was carried out in DMEM (high glucose) culture medium containing 10% FBS (Fetal bovine serum) under the condition of 5% CO2/20% O2, at 37° C.
[1] […]
[2] […] Cell survival level was measured by MTT assay using Cell Counting Kit-8 (manufactured by Dojindo Laboratories). That is, 100 μL of Cell Count Reagent SF was added to each well, incubated for 2 hours, and after 3 seconds of stirring with a microplate reader, the absorbance was measured at 450 nm (reference 750 nm). In addition, the level of cytotoxicity was detected by measuring lactate dehydrogenase (LDH) activity released extracellularly using Cytotoxicity LDH Assay Kit-WST (manufactured by Dojindo Laboratories). That is, 100 μL each of Working Solution prepared in each well was added, incubated for 30 minutes, Stop Solution was added in 50 μL each, and after stirring for 3 seconds with a microplate reader, the absorbance was measured at 490 nm (reference 750 nm).

With `O=C(CC(C(=O)O)c1c[nH]c2ccccc12)c1ccc(F)cc1F` (centres unmarked) [compound #5, 4-(2,4-Difluorophenyl)-2-(1H-indol-3-yl)-4-oxo-butanoic Acid] the “decrease in cell survival level” value (compound 10 μM) was “significantly suppressed” and the “decrease in cell survival level” value (compound at least 1 μM) was “inhibited”.
